Measurements published in US4988733A, “N-[1-(3-phenoxyphenyl)ethyl]acetohydroxamic acid compounds which are useful anti-inflammatory agents” (Burroughs Wellcome Co., priority 1987, dated 1991).
Where “and” joins values, the source holds several entries; their conditions need not be identical. Identical values can stand only once.

Tests used:
[1] = target: T1, 5-lipoxygenase (5-LO) (Homo sapiens, UniProt P09917); assay: In vitro inhibition of 5-lipoxygenase in homogenised leukocytes (LTB4 radioimmunoassay); format: biochemical; conditions: homogenised leukocytes of aspirin-free volunteers, 5 μM arachidonic acid, 37° C., 5 minutes
T1 construct: The leukocytes were homogenised and 5 μM arachidonic acid added; from tissue; host or cells: homogenised blood leukocytes of normal aspirin-free volunteers
T1 sequence (P09917 1-674): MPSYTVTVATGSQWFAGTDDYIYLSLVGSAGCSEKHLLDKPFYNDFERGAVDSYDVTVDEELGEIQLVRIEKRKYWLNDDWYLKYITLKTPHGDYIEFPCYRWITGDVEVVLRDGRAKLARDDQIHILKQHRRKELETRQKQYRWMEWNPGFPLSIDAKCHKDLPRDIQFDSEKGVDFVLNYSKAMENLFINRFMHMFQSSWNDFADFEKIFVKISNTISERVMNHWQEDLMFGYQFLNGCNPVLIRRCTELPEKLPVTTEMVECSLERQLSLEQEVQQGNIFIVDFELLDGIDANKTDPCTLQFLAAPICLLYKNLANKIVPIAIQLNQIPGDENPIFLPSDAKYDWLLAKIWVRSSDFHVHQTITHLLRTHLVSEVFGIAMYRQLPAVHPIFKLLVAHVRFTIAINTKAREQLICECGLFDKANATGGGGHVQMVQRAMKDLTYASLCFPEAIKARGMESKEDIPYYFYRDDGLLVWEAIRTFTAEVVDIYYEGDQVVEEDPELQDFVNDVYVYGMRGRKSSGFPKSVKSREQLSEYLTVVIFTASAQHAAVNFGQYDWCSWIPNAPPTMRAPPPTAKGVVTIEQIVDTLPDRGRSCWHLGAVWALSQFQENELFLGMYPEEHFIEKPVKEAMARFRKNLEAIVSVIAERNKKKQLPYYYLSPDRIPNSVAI
Protocol: (§1) C. In vitro inhibition of 5-lipoxygenase (5-LO) and cyclo-oxygenase (CO) Blood from normal aspirin-free volunteers was centrifuged to separate leukocytes from red cells and platelets. The leukocytes were homogenised and 5 μM arachidonic acid added, followed by incubation at 37° C. for 5 minutes. The reaction was stopped by boiling and radioimmunoassays conducted for LTB4 and TXB2. Results were calculated as IC50 (μM) activity against each enzyme.

[2] = tested on: stimulated LTB4 synthesis; assay: Stimulated LTB4 synthesis ex vivo after administration to rabbits of 10 mg/kg PO; format: in vivo
Protocol: B. Time for stimulated LTB4 synthesis ex vivo to return to 50% of original value after administration to rabbits of 10 mg/kg PO

[3] = target: T2, cyclo-oxygenase (CO) (Homo sapiens, UniProt P23219); assay: In vitro inhibition of cyclo-oxygenase in homogenised leukocytes (TXB2 radioimmunoassay); format: biochemical; conditions: homogenised leukocytes of aspirin-free volunteers, 5 μM arachidonic acid, 37° C., 5 minutes
T2 construct: The leukocytes were homogenised and 5 μM arachidonic acid added; from tissue; host or cells: homogenised blood leukocytes of normal aspirin-free volunteers
Protocol: as §1

[4] = Plasma concentration after administration to rabbits of 10 mg/kg PO; format: in vivo; conditions: rabbit; for Cmax: read-out: Maximum plasma concentration; for half-life: read-out: time for plasma concentration to fall to 50% of maximum value obtained after administration (converted)
Protocol: A. Maximum plasma concentration obtained after administration to rabbits of 10 mg/kg PO and time for plasma concentration to fall to 50% of maximum value obtained after administration

T2 sequence (P23219 24-599): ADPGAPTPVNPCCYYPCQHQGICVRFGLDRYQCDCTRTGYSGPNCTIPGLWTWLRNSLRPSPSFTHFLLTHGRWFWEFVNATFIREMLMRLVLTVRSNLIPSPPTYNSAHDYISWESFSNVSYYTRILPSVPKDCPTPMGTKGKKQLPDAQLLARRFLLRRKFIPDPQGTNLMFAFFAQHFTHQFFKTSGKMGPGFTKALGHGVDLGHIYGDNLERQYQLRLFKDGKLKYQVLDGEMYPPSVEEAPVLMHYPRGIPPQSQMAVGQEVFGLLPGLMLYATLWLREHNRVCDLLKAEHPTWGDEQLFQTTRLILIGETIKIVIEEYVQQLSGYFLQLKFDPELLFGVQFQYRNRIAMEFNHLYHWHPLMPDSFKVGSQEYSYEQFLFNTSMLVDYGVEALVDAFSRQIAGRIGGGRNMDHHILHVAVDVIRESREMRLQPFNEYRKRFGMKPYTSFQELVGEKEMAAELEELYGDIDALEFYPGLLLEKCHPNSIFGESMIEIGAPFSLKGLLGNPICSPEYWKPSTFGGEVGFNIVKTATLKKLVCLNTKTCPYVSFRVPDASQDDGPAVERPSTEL

Row | SMILES | IC50 [1] | Time for stimulated LTB4 synthesis ex vivo to return to 50% of original value [2] [h] | IC50 [3] [nM] | Cmax [4] [ng/mL] | half-life [4] [min]
1 | CC(=O)N(O)C(C)/C=C/c1cccc(Oc2ccc(Br)cc2)c1 (stereo not drawn) [(E)-N-{1-Methyl-3-[3-(4-bromophenoxy)phenyl]prop-2-enyl}acetohydroxamic acid] | 10 nM | > 24 | 180 | 710 | > 1440
2 | CC(=O)N(O)C(C)/C=C/c1cccc(Oc2ccc(C)cc2)c1 (stereo not drawn) [(E)-N-{1-Methyl-3-[3-(4-methylphenoxy)phenyl]prop-2-enyl}acetohydroxamic acid] |  |  |  | 70 | 258
3 | CC(=O)N(O)C(C)/C=C/c1cccc(Oc2ccc(F)cc2)c1 (stereo not drawn) [(E)-N-{1-methyl-3-[3-(4-fluorophenoxy)phenyl]prop-2-enyl}acetohydroxamic acid] | 200 nM and 300 nM | 24.0 |  | 1070 | 678
4 | CC(=O)N(O)C(C)/C=C/c1cccc(Oc2cccc(C(F)(F)F)c2)c1 (stereo not drawn) [(E)-N-{1-Methyl-3-[3-(3-trifluoromethylphenoxy)phenyl]prop-2-enyl}acetohydroxamic acid] | 110 nM | > 24 | > 1000 | 840 | > 1440
5 | CC(=O)N(O)C(C)/C=C/c1cccc(Oc2ccc(C(C)(C)C)cc2)c1 (stereo not drawn) [(E)-N-{1-Methyl-3-[3-(4-t-butylphenoxy)phenyl]prop-2-enyl}acetohydroxamic acid] | 500 nM | 2.4 |  | 160 | > 1440
6 | CC(=O)N(O)C(C)/C=C/c1cccc(Oc2ccc(Cl)cc2)c1 (stereo not drawn) [(E)-N-{1-methyl-3-[3-(4-chlorophenoxy)phenyl]prop-2-enyl}acetohydroxamic acid] | 80 nM | > 24 | > 1000 | 930 | > 1440
7 | CC(=O)N(O)C(C)/C=C/c1cccc(Oc2ccccc2)c1 (stereo not drawn) [(E)-N-[1-methyl-3-(3-phenoxyphenyl)prop-2-enyl]acetohydroxamic acid] | 80 nM | 22.6 | 1000 | 460 | 642
8 | CC(=O)N(O)C(C)/C=C/c1cccc(Oc2ccc(F)cc2F)c1 (stereo not drawn) [(E)-N-{1-Methyl-3-[3-(2,4-difluorophenoxy)phenyl]prop-2-enyl}acetohydroxamic acid] |  | 20.7 |  |  | 
9 | CC(=O)N(O)C/C=C/c1cccc(Oc2ccccc2)c1 [(E)-N-[3-(3-phenoxyphenyl)prop-2-enyl]acetohydroxamic acid, reference compound] |  |  | 1000 |  | 
10 | CC(=O)N(O)C(C)/C=C/c1cccc(Oc2cc(Cl)cc(Cl)c2)c1 (stereo not drawn) [(E)-N-{1-Methyl-3-[3-(3,5-dichlorophenoxy)phenyl]prop-2-enyl}acetohydroxamic acid] | 400 nM | > 24 |  | 1900 | > 1440
